Reference: PMC9394307, “Discovery of Putative Dual Inhibitor of Tubulin and EGFR by Phenotypic Approach on LASSBio-1586 Homologs” (Pharmaceuticals, 2022)
Read-outs that look alike come from different tables or passages of the source.

How the values were obtained:
LoVo = assay: MTT cell viability assay, LoVo; type: cell-based; details: Homo sapiens, read-out: CC50 (µM) (CI) LoVo
Method: (§1) The cytotoxic activity of compounds 3–13 was determined based on an MTT assay against different human tumor cell lines, using LASSBio-1586 (2), LASSBio-1735 (3), CA-4 (1) and pelitinib as standards (Table 2). To determine the cytotoxic selectivity index, compounds were also evaluated toward human lymphocytes (Table 3).
(§2) The target compounds were tested (0.0001–100 µM) for cytotoxic activity against selected human cancer cell lines, such as HL-60 (acute promyelocytic leukemia), MCF-7 (mammary adenocarcinoma), PC-3 (prostate adenocarcinoma), H1975 (non-small cell lung cancer—EGFR^L858R+T790M), PC-9 (non-small cell lung cancer—EGFR^L858R) H292 (mucoepidermoid pulmonary carcinoma—EGFR wild type), LoVo (colorectal adenocarcinoma—EGFRwild type) and GM16000 (lymphocyte). All the human cancer cell lines were purchased from Cell Bank of Rio de Janeiro—BCRJ. They were cultured in RPMI 1640 medium with 10% (v/v) FBS, 2 mM glutamine, at 37 °C in a humidified incubator containing 5% CO2.
(§3) The cytotoxicity of the compounds was evaluated by the MTT assay. The cell lines were cultured in 96 well plates for 72 h with a density of 0.1 × 10^5 cells/mL to 0.7 × 10^5 cells/mL to adherent cell lines. For lymphocytic lines, a density of 0.3 × 10^6 cells/mL was used. Afterwards they were treated with varying concentrations of the target compounds 2–12 (0.0001–100 µM), CA-4 (1) and pelitinib at 37 °C, in triplicate. The medium was incubated with 20 μL of 5 mg/mL MTT solution for 3 h in a humidified incubator containing 5% CO2 [11].
(§4) The purple-colored formazan crystals formed in the wells were dissolved in DMSO and their absorbance was measured at 595 nm with a microplate reader (SpectraMax M5, Molecular Devices).

PC-3 = assay: MTT cell viability assay, PC-3; type: cell-based; details: Homo sapiens, PC-3, 72 h, read-out: CC50 (µM) (CI) PC-3
Method: as §1, §2, §3, §4

[1] = MTT cell viability assay, GM16000 lymphocytes; type: cell-based; details: human lymphocytes, value (95% CI)
H1975 cells [2] = assay: Immunofluorescence of β-tubulin / microtubules; type: cell-based, human; details: H1975, 48 h; CA-4 0.3 µM, vincristine 0.5 µM, taxol 0.1 µM, LASSBio-1586 10 µM, LASSBio-1735 0.5 µM, LASSBio-2070 4.5 µM, LASSBio-2074 20 µM
Method: Antitubulin agents have been broadly classified into destabilizing or stabilizing agents, based on their interference with the dynamic balance of polymerization or depolymerization of microtubules. […] CA-4 (1, 0.3 µM), vincristine (0.5 µM) and taxol (0.1 µM) were used as standard controls.
After incubation, cells were rinsed with PBS and fixed with 4% paraformaldehyde in PBS for 10 min at room temperature. They were then permeabilized with 0.5% Triton-X 100 in PBS 3 times for 10 min. The same solution was used for all subsequent washing steps. Cells were incubated with an anti-beta-tubulin antibody for 1 h at 37 °C. After incubation, cells were washed for 30 min and incubated with Alexa Fluor® 488, conjugated secondary antibody for 1 h at 37 °C, and nuclei were labeled with DAPI (0.1 mg/mL in 0.9% NaCl).
Live cultured cells grown in coverslips were mounted in Prolong Gold solution (Molecular Probes, USA) and were imaged on a Leica TCS SPE confocal microscope (Leica Microsystems, Germany) using 63x 1.3 N.A. oil immersion and the images acquired by the LAS X software. Cell morphology, focusing on the microtubules was analyzed, qualitatively, using the public domain NIH ImageJ Program (developed at the National Institutes of the USA Health and available on the internet at http://imagej.nih.gov/ij/ (accessed on 1 September 2021).

HL-60 = assay: MTT cell viability assay, HL-60; type: cell-based, human; details: Homo sapiens, read-out: CC50 (µM) (CI) HL-60
Method: as §1, §2
as §3, with “The cell lines were cultured in 96 well plates for 72 h with a density of 0.1 × 10^5 cells/mL to 0.7 × 10^5 cells/mL to adherent cell lines.” left out
as §4

[3] = MTT cell viability assay, GM16000 lymphocytes; type: cell-based; details: human lymphocytes, value (95% CI); remark: listed apart in the source
Method: as §1
To establish the cytotoxic selective index (SI) of LASSBio-1586 homologs, they were studied on human lymphocyte cell lines (GM16000), using the MTT assay. The SI was calculated by the ratio between the CC50 on tumor and non-tumor cell lines. Although there is no consensus, values of SI ≥ 10 is considered satisfactory to assign safety to a new cytotoxic agent. This value means that the compound is more than ten times more cytotoxic to the tumor cell line than to normal cell line.
as §2, §3, §4

PC-9 = assay: MTT cell viability assay, PC-9; type: cell-based, human; details: Homo sapiens, read-out: CC50 (µM) (CI) PC-9
Method: as §1, §2
as §3, with “The cell lines were cultured in 96 well plates for 72 h with a density of 0.1 × 10^5 cells/mL to 0.7 × 10^5 cells/mL to adherent cell lines.” left out
as §4

H1975 cells [4] = assay: Cell cycle analysis by flow cytometry (Guava Muse Cell Cycle Kit); type: cell-based, human; details: H1975, 48 h of treatment; CA-4 0.04 µM, LASSBio-1586 2.0 µM, LASSBio-1735 0.08 µM, LASSBio-2070 3.0 µM, LASSBio-2074 1.5 µM; vs DMSO 0.1%
Method: Changes in the cell cycle are important aspect in tumorigenesis. Therefore, the identification of the steps related to inhibition of cell multiplication is an important process during the discovery of new antitumoral drug candidates. […] Flow cytometry was used for cell cycle analysis to estimate the percentages of a cell population in the different phases of the cell cycle. The analysis was performed using the lung cancer cell line H1975 treated with CA-4 (1, 0.04 µM), LASSBio-1586 (2, 2.0 µM), LASSBio-1735 (3, 0.08 µM), LASSBio-2070 (10, 3.0 µM) and LASSBio-2074 (11, 1.5 µM).
(§5) Flow cytometry was applied to help elucidate the mechanism of action of the studied compounds, both to verify the cell cycle phase and to verify the action on EGFR protein kinase.
The anti-tubulin effect was evaluated by seeding H1975, H292 and PC-9 into 6-well plates at a density of 2 × 10^5 per well. […] Cells were harvested and stained according to the protocols of The Guava Muse® Cell Cycle Kit (MCH100106) to quantitatively measure the percentage of cells in the G2/M phases of the cell cycle and the EGFR-RTK Activation Dual Detection Kit (MCH200102) (Luminex®) to measure EGFR phosphorylation in relation to total EGFR expression in the cell population, according to the manufacturer’s instructions for use in test kits using a Guava Muse® Cell Analyzer (Luminex®). Each experiment was performed at least three times independently.

H292 = assay: MTT cell viability assay, H292; type: cell-based, human; details: Homo sapiens, read-out: CC50 (µM) (CI) H292
Method: as §1, §2
as §3, with “The cell lines were cultured in 96 well plates for 72 h with a density of 0.1 × 10^5 cells/mL to 0.7 × 10^5 cells/mL to adherent cell lines.” left out
as §4

MCF-7 = assay: MTT cell viability assay, MCF-7; type: cell-based, human; details: Homo sapiens, MCF7, 72 h, read-out: CC50 (µM) (CI) MCF-7
Method: as §1, §2, §3, §4

H1975 = assay: MTT cell viability assay, H1975; type: cell-based, human; details: Homo sapiens, read-out: CC50 (µM) (CI) H1975
Method: as §1, §2
as §3, with “The cell lines were cultured in 96 well plates for 72 h with a density of 0.1 × 10^5 cells/mL to 0.7 × 10^5 cells/mL to adherent cell lines.” left out
as §4

[5] = test system: EGFR in PC-9 cell line (EGFR^L858R); assay: Guava Muse EGFR-RTK Activation Dual Detection Kit, flow cytometry; type: cell-based, human
Method: as §5
The anti-tubulin effect was evaluated by seeding H1975, H292 and PC-9 into 6-well plates at a density of 2 × 10^5 per well. The cells were treated with the selected compounds for 72 h. Cells were harvested and stained according to the protocols of The Guava Muse® Cell Cycle Kit (MCH100106) to quantitatively measure the percentage of cells in the G2/M phases of the cell cycle and the EGFR-RTK Activation Dual Detection Kit (MCH200102) (Luminex®) to measure EGFR phosphorylation in relation to total EGFR expression in the cell population, according to the manufacturer’s instructions for use in test kits using a Guava Muse® Cell Analyzer (Luminex®). Each experiment was performed at least three times independently.

Structure (SMILES) | CC50 (LoVo; 48 h) | CC50 (LoVo; 72 h) | CC50 (PC-3) | CC50 at 48 h [1] | cell morphology after treatment (H1975 cells [2]) | effect on microtubules (stabilizing / destabilizing profile) (H1975 cells [2]) | CC50 (HL-60; HL-60, 48 h) | CC50 (HL-60; HL-60, 72 h) | CC50 at 72 h [3] | CC50 (PC-9; PC-9, 48 h) | CC50 (PC-9; PC-9, 72 h) | cell cycle distribution (G0/G1, S, G2/M) (H1975 cells [4]) | CC50 (H292; NCI-H292, 48 h) | CC50 (H292; NCI-H292, 72 h) | CC50 (MCF-7) | CC50 (H1975; NCI-H1975, 48 h) | CC50 (H1975; NCI-H1975, 72 h) | cells with Inactivated EGFR (EGFR inactivation index) [5]
COc1ccc(/C=C\c2cc(OC)c(OC)c(OC)c2)cc1O [CA-4 (1), Combretastatin A-4, reference compound] | 0.179 µM | 0.039 µM | 0.096 µM | 0.016 µM | rounded shape | typical response of microtubule destabilizing agents | 1.3 µM | 0.077 µM | 0.064 µM | 0.025 µM | 0.01 µM | increased cells in phase G2/M | 0.091 µM | 0.013 µM | 8.58 µM | 0.058 µM | 0.035 µM | –
C=CC(=O)Nc1cc(Nc2nccc(-c3cn(C)c4ccccc34)n2)c(OC)cc1N(C)CCN(C)C [Osimertinib, reference compound] | – | – | – | – | – | – | – | – | – | – | – | – | – | – | – | – | – | 30%
